Results: ChEMBL document CHEMBL5325506, “Discovery of neo-Clerodane Diterpenoids from Ajuga campylantha as Neuroprotective Agents against Ferroptosis and Neuroinflammation” (J Nat Prod, 2023)
Each block holds one compound with its values, some of them ahead of it. Active and inactive are the calls of the source. The calls are words filed in the database; no cut-off is given here.

What was measured:
[1] = test system: HT-22; assay: Cytotoxicity against mouse HT-22 cells assessed as reduction in cell viability at 30 uM incubated for 24 hrs by MTT assay; type: toxicity, cell-based; conditions: ht-22, 24 h
[2] = Metal chelating activity assessed as Fe2+-compound complex formation at 50 mM in presence of FeSO4 by UV-Visible spectrophotometry
[3] = test system: BV-2; assay: Anti-inflammatory activity in mouse BV-2 cells assessed as inhibition of LPS-induced NO accumulation measured after 24 hrs by Griess reagent-based analysis; type: functional, cell-based; conditions: BV-2, 24 h
[4] = test system: HT-22; assay: Inhibition of RSL3-induced ferroptosis in mouse HT-22 cells assessed as increase in cell viability at 30 uM incubated for 24 hrs by MTT assay; type: functional, cell-based
[5] = test system: BV-2; assay: Cytotoxicity against mouse BV-2 cells assessed as reduction in cell viability at 10 to 30 uM incubated for 24 hrs by MTT assay; type: toxicity, cell-based; conditions: bv-2, 24 h, dose 10-30 µM
[6] = test system: HT-22; assay: Reversal of RSL3-induced morphological changes in mouse HT-22 cells incubated for 24 hrs; type: functional, cell-based; conditions: dose 3-30 µM
[7] = test system: HT-22; assay: Inhibition of RSL3-induced ferroptosis in mouse HT-22 cells assessed as increase in cell viability incubated for 24 hrs by MTT assay; type: functional, cell-based; conditions: HT-22, 24 h
[8] = test system: HT-22; assay: Inhibition of RSL3-induced ferroptosis in mouse HT-22 cells assessed as reduction in lipid accumulation incubated for 4 hrs by BODIPY-C11 based flow cytometric analysis; type: functional, cell-based; conditions: dose 3-30 µM
[9] = test system: HT-22; assay: Inhibition of RSL3-induced ferroptosis in mouse HT-22 cells assessed as reduction in cytosolic ROS accumulation incubated for 4 hrs by carboxy-H2DCFDA based flow cytometric analysis; type: functional, cell-based; conditions: dose 3-30 µM
[10] = test system: HT-22; assay: Inhibition of RSL3-induced ferroptosis in mouse HT-22 cells assessed as downregulation of PTGS2 mRNA expression at 10 to 30 uM incubated for 4 hrs by qRT-PCR analysis; type: functional, cell-based; conditions: dose 10-30 µM
[11] = test system: HT-22; assay: Inhibition of glutamate-induced ferroptosis in mouse HT-22 cells at 30 uM incubated for 24 hrs; type: functional, cell-based
[12] = test system: HT-22; assay: Inhibition of STS-induced apoptosis in mouse HT-22 cells at 30 uM incubated for 24 hrs; type: functional, cell-based
[13] = test system: HT-22; assay: Inhibition of H2O2-induced necrosis in mouse HT-22 cells at 30 uM incubated for 24 hrs; type: functional, cell-based
[14] = test system: HT-22; assay: Inhibition of TNFalpha/AZD5582/Z-VAD-fmk induced necroptosis in mouse HT-22 cells at 30 uM incubated for 24 hrs; type: functional, cell-based
[15] = Antioxidant activity assessed as DPPH radical scavenging activity at 100 uM measured after 30 mins by microplate spectrophotometer analysis; type: functional

Compound: C=C1CCC[C@@H]2[C@@](C)(CCC3=C[C@@H](OCC)OC3=O)[C@H](C)C[C@H](O)[C@@]12C
Activity [1]: Non-Toxic

Activity [2]: Active
Compound: CC(=O)N(O)CCCCCNC(=O)CCC(=O)N(O)CCCCCNC(=O)CCC(=O)N(O)CCCCCN

Compound: CCOC(=O)CC(=O)OC[C@@]1(O)CCC[C@@H]2[C@@](C)(CCc3ccoc3)[C@H](C)C[C@H](O)[C@]21C
Activity [1]: Non-Toxic

IC50 [3]: 41 µM
Compound: C=C1CCC[C@@H]2[C@@](C)(CCC3=CC(OC)OC3=O)[C@H](C)C[C@H](O)[C@@]12C (stereo partly specified)
Activity [1]: Non-Toxic

Compound: C=C1CCC[C@@H]2[C@@](C)(CCC3=C[C@H](OCC)OC3=O)[C@H](C)C[C@H](O)[C@@]12C
Activity [1]: Non-Toxic

Compound: CCO[C@@H]1C[C@@H]2C(C=O)=C(C)C[C@@H]2O1
Activity [1]: Non-Toxic

Compound: COC1C=C(CC[C@@]2(C)[C@H](C)C[C@H](O)[C@]3(COC(C)=O)[C@@H]2CCC[C@]32CO2)C(=O)O1 (stereo partly specified)
Activity [1]: Non-Toxic

Compound: C[C@@H]1C[C@H](O)[C@]2(C)[C@H](CCC[C@@]2(O)CO)[C@@]1(C)CCc1ccoc1
Activity [1]: Non-Toxic | inhibition [4]: Active

Compound: C=C1CCC[C@@H]2[C@@](C)(CC/C(=C/CO)CO)[C@H](C)C[C@H](O)[C@@]12C
Activity [1]: Non-Toxic

IC50 [3]: 9.7 µM
Compound: C=C1CCC[C@H]2[C@@]1(C)C(=O)C[C@@H](C)[C@]2(C)CCC1=CC(OC)OC1=O (stereo partly specified)
Activity [1]: Non-Toxic | Activity [5]: Non-Toxic

Compound: C=C1CCC[C@@H]2[C@@](C)(CCC3=CC(=O)OC3)[C@H](C)C[C@H](O)[C@@]12C
Activity [1]: Non-Toxic

Compound: CC(=O)OC[C@@]1(O)CCC[C@@H]2[C@@](C)(CCc3ccoc3)[C@H](C)C[C@H](O)[C@]21C
Activity [1]: Non-Toxic

Activity [2]: inactive
Compound: C[C@@H]1C[C@H](O)[C@]2(C)[C@H](CCC[C@]23CO[C@@](C)(O)O3)[C@@]1(C)CCc1ccoc1
Activity [1]: Non-Toxic | Activity [6]: Dose-Dependent Effect | EC50 [7]: 10 µM | inhibition [8]: Dose-Dependent Effect | inhibition [9]: Dose-Dependent Effect | inhibition [10]: Active | inhibition [11]: Active | inhibition [12]: inactive | inhibition [13]: inactive | inhibition [14]: inactive | Activity [15]: inactive

IC50 [3]: 32 µM
Compound: Oc1ccc(/C=C/c2cc(O)cc(O)c2)cc1 [RESVERATROL]

Compound: C=C1CCC[C@@H]2[C@@](C)(CCC3=C[C@@H](OCC)O[C@@H]3OCC)[C@H](C)C[C@H](O)[C@@]12C
Activity [1]: Non-Toxic

Compound: C=C1CCC[C@@H]2[C@@](C)(CCC3=C[C@H](OCC)O[C@@H]3OCC)[C@H](C)C[C@H](O)[C@@]12C
Activity [1]: Non-Toxic

Compound: C[C@@H]1C[C@H](O)[C@]2(C)[C@H](CCC[C@]2(O)CO)[C@@]1(C)CCc1ccoc1
Activity [1]: Non-Toxic | inhibition [4]: Active

Compound: C[C@@H]1C[C@@H]2OC(=O)[C@@H]3CCC[C@H]([C@@]1(C)CCc1ccoc1)[C@@]23C
Activity [1]: Non-Toxic

Compound: C=C1CCC[C@@H]2[C@@](C)(CCC3=CC(=O)OC3C)[C@H](C)C[C@H](O)[C@@]12C (stereo partly specified)
Activity [1]: Non-Toxic

Compound: C=C1CCC[C@@H]2[C@@](C)(CC[C@]3(O)[C@@H](OCC)O[C@H](OCC)[C@H]3O)[C@H](C)C[C@H](O)[C@@]12C
Activity [1]: Non-Toxic

Compound: C=C1CCC[C@@H]2[C@@](C)(CCC3=CC(O)OC3=O)[C@H](C)C[C@H](O)[C@@]12C (stereo partly specified)
Activity [1]: Non-Toxic

Compound: C[C@@H]1C[C@H](C)C2=C(CO)CCC[C@@H]2[C@@]1(C)CCc1ccoc1
Activity [1]: Non-Toxic | inhibition [4]: Active

Compound: C=C1CCC[C@@H]2[C@@](C)(CCc3ccoc3)[C@H](C)C[C@H](O)[C@@]12C
Activity [1]: Non-Toxic | inhibition [4]: Active
